Ends that are not written are not given here.
Columns and labels:
HIV-1 IIIB = assay: Inhibition of HIV-1IIIB infection of MT-2 cells, p24 ELISA; type: cell-based; conditions: HIV-1 IIIB at 100 TCID50, peptide overnight, p24 antigen ELISA on fourth day post-infection
Experimental: The inhibitory activity of the NHR- and CHR-peptides on HIV-1IIIB infection was determined as previously described. In brief, 1×10^4 MT-2 cells were infected with HIV-1 IIIB at 100 TCID50 (50% tissue culture infective dose) in 200 µl culture medium in the presence or absence of the test peptide overnight. Then the culture supernatants were removed, and fresh media were added. On the fourth day post-infection, 100 µl of culture supernatants were collected from each well, mixed with equal volumes of 5% Triton X-100 and assayed for p24 antigen by an in-house ELISA as described before.

[1] = system: HIV-1IIIB-mediated cell-cell fusion (H9/HIV-1IIIB-infected cells with MT-2 cells); type: cell-based; conditions: calcein-AM-labeled H9/HIV-1IIIB-infected cells with MT-2 cells (ratio 1:5), 37°C, 2 h; fused cells counted under fluorescence microscope; read-out: IC50 (nM) for inhibition of HIV-1IIIB-mediated cell-cell fusion
Text: To detect HIV-1 mediated cell-cell fusion, we performed a dye transfer assay as previously described. […] Then under an inverted fluorescence microscope (Zeiss, Germany) with an eyepiece micrometer disc, we calculated the fused and unfused calcein-labeled HIV-1-infected cells. Previously developed methods were applied to calculate the percent inhibition of cell-cell fusion and the IC50 values.

Row | Sequence | IC50 (HIV-1 IIIB) | IC50 [1]
1 | WMEWDREINNYTSLIHSLIEASQNQQEKNEQELL [C34 E137A] | 12.2 ± 1.28 nM | 4.681 ± 0.029 nM
2 | WMEWDREINNYTSLIHSLIERSQNQQEKNEQELL [C34 E137R] | 22.1 ± 1.8 nM | 5.32 ± 1.29 nM

From publication PMC3436870, “The Conserved Residue Arg46 in the N-Terminal Heptad Repeat Domain of HIV-1 gp41 Is Critical for Viral Fusion and Entry” (PLoS ONE, 2012)
